{"source": "paper PMC8703531", "about": "“Structure of ABCB1/P-Glycoprotein in the Presence of the CFTR Potentiator Ivacaftor” (Membranes, 2021)", "biological_target": "T1, murine P-glycoprotein (P-gp, ABCB1; abcb1a, mdr3) (Mus musculus, UniProt P21447)", "T1 construct": "opti-mdr3 gene product expressed in P. pastoris, purified in DDM", "T1 sequence (P21447 whole entry)": "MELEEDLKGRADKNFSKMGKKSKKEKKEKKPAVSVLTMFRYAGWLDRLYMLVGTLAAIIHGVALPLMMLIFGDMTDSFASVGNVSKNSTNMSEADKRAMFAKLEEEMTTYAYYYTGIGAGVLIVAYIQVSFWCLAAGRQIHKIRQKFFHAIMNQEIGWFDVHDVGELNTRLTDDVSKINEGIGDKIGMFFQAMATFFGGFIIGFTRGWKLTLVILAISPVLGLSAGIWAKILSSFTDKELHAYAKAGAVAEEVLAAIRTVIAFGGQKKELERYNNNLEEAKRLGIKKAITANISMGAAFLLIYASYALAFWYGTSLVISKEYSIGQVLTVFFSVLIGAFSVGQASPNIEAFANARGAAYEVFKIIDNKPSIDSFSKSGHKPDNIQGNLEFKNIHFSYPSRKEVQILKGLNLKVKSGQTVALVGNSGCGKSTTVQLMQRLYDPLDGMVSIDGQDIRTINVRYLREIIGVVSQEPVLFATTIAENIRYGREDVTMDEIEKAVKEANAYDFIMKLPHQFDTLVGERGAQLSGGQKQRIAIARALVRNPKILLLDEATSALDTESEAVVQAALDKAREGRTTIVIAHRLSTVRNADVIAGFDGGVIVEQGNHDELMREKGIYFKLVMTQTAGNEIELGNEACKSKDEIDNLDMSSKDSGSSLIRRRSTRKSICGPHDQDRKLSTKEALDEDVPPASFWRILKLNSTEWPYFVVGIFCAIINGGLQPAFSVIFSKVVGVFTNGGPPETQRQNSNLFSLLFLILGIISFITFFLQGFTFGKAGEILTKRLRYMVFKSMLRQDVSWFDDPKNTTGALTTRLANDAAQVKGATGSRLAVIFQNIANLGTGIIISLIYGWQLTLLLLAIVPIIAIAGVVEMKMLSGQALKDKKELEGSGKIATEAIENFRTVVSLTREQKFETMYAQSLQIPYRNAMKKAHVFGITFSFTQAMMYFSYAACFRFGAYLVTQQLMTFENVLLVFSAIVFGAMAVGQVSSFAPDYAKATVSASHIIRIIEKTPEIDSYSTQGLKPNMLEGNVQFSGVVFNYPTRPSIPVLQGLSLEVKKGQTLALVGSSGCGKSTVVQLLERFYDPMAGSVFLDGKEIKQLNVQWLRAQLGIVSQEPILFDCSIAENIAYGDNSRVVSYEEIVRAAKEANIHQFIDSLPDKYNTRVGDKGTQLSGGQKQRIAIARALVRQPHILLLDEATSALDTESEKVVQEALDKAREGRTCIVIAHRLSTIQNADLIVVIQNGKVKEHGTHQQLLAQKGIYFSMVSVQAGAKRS", "assay": "thermostability shift of purified protein (static light scattering, tryptophan fluorescence, CPM dye) giving KD; cryo-EM with additional density (map a)", "type": "binding", "data": [{"compound": "CC(C)(C)c1cc(C(C)(C)C)c(NC(=O)c2c[nH]c3ccccc3c2=O)cc1O", "note": "[ivacaftor]", "values": [{"measurement": "Kd", "result": 200, "unit": "nM"}]}]}
